What was measured:
[1] = system: human gingival fibroblasts (HGF)
Procedure: Human gingival tissues from healthy nonsmokers were collected with institutional review board approval and tissues were cultured in high glucose Dulbecco's modified eagles medium (DMEM), 10% FBS, and 1% antimycotic/antiobiotic. Tissues were incubated at 37° C. in a humidified gas mixture (5% CO2 and 95% air) and medium was changed every 24 hours. Human gingival fibroblasts (HGF) grew from the tissue after a week. Cells were passaged using 0.25% trypsin solutions and plated in new tissue culture flasks when confluent. Passages 3-12 were used in all of the experiments.
In this experiment, 5×10^3 cells in 100 μL of culture medium were seeded into each well of a 96-well plate. […]
(§3) Cell viability and survival were assessed by MTS colorimetric assay (3-[4,5-dimethylthiazol-2-yl]-5-[3-carboxymethoxyphenyl]-2-[4-sulfophenyl]-2H-tetrazolium) (Promega Corp., Madison, Wis.). This quantitative assay detects living but not dead cells. […] The absorbance at 490 nm was measured using a SpectraMax microplate spectrophotometer (Molecular Devices, Sunnyvale, Calif.). […]
Percent viable cells were expressed as; A/B, where A is absorbance at 490 nm with antioxidant compounds (RFT, PFR, PFT) and H2O2 or Ethanol pre-treatments; B absorbance at 490 nm with 0.1% FBS (control). […]

[2] = system: Human periodontal ligament fibroblasts (HPDL)
Procedure: Culture conditions as described in HGF were similarly employed in the HPDL cells. In this experiment, 5×10^3 cells in 100 μL of culture medium were seeded into each well of a 96-well plate. […] Bioactive antioxidant mixtures tested included: resveratrol, ferulic acid and tetrahydrocurcuminoids (RFT), phloretin, ferulic acid and resveratrol (PFR), phloretin, ferulic acid and tetrahydrocurcuminoids (PFT).
Cells were washed with PBS and treated with antioxidant mixtures (RFT, PFR, PFT) in 0.1% FBS medium (DMEM and 1% antimycotic/antiobiotic) for 24 hours.
Different ethanol concentrations (15%, 10% and 5%) were used for dose response experiments for 30 or 60 minutes.
After pretreatment with ethanol or H2O2, the cells were rinsed and treated with 10^−5M (0.4% wt/v) antioxidant mixture (RFT, PFR, PFT) for 24 hrs.
as §3
a. Percent viable cells were expressed as; A/B, where A is absorbance at 490 nm with antioxidant compounds (RFT, PFR, PFT) and H2O2 or Ethanol pre-treatments; B absorbance at 490 nm with 0.1% FBS (control). […]

Rac-GTP in HPDL cells = experiment: Rac-GTP immunofluorescence in scratch wound assay, nicotine-exposed HPDL; assay type: cell-based, human; settings: nicotine 6 mM, 8 mM, 10 mM
Procedure: (§1) Both cell types tested (HGF and HPDL) were plated at 5×10^4 cells/well in a Lab-Tek II chamber glass slide with cover (Nalge Nunc International, Rochester, N.Y.). Approximately 400 μl of cell medium suspension was added to each well. The cells were grown overnight until confluent. Cells were pretreated with nicotine (10 mM, 8 mM and 6 mM) for two hours and then treated with antioxidants (resveratrol, trans=ferulic acid, tetrahydrocurcuminoids CG™, or phloretin) in double or triple combinations at 0.4% w/v (10^−5M). Two hours later, a scratch wound assay was performed using a sterile 10 μl pipet tip.
(§2) The cells were fixed with 4% paraformaldehyde for 30 minutes and then washed with sterile phosphate buffered saline (PBS) three times. […] The secondary antibody (1:500 Alexa Fluor® 488 goat anti-mouse IgG (H+L) (Molecular Probes, Eugene, Oreg.) was incubated for two hours at room temperature. The stained cells were washed with PBS three times. The Lab-Tek II wells were removed and the cells were cover-slipped with slowfade mounting medium. Analysis of the levels of Rac-GTP at the leading edge of the wound were determined using confocal microscopy. All treatments were recorded with the same settings on a Leica SP2 microscope. All images were taken from projected z stacks of the immunolabeled cells. Intensity of Rac-GTP immunofluorescence was determined using Nikon Elements software. […]

Rac-GTP in HGF cells = experiment: Rac-GTP immunofluorescence in scratch wound assay, nicotine-exposed HGF; assay type: cell-based, human
Procedure: as §1, §2

[3] = system: human gingival fibroblast (HGF) cells; settings: 6, 8 or 10 mM nicotine, two hours
Procedure: Cells were then treated with a solution containing either the three antioxidants described above, or a 1:1 ratio of only two antioxidants, or only a single antioxidant. Cell migration was recorded using BioStation Live Cell Imaging (Nikon Instruments, Melvile, N.Y.) every hour for ten hours, and data presented here is for 1 hour, 5 hours, or 10 hours.

Molecule: OO [Formulation H2O2, hydrogen peroxide]
- viable cells (MTS) after H2O2 [1]: dose-dependent decrease of viable cells
- viable cells (MTS) after H2O2 [2]: dose-dependent decrease of viable cells

Molecule: CN1CCCC1c1cccnc1 (centres unmarked) [nicotine]
- effect of nicotine on Rac-GTP expression (Rac-GTP in HPDL cells): dose dependent decrease
- effect of nicotine on Rac-GTP expression (Rac-GTP in HGF cells; nicotine 6 mM, 8 mM, 10 mM): dose dependent decrease
- effect of nicotine on cell migration [3]: deleterious effect on cell migration that increased with exposure to more concentrated nicotine

Molecule: COc1cc(/C=C/C(=O)O)ccc1O [trans-ferulic acid]
- increase of Rac-GTP expression over nicotine treated cells (6 mM Nic), mean pixel intensity (Rac-GTP in HGF cells; 6 mM nicotine two hours, then antioxidants 10^−5 M, leading edge of the wound): 35%

Molecule: ethyl alcohol [Ethanol]
- cell viability (MTS) after ethanol [1]: dose dependent effect on cell viability
- cell viability (MTS) after ethanol [2]: dose dependent effect on cell viability

Reference: patent publication US20100183524A1, “ANTIOXIDANT COMPOSITIONS FOR SOFT ORAL TISSUE AND METHODS OF FORMULATION AND USE THEREOF” (Perio Sciences, LLC, priority 2008, published 2010)
